Test results from the NIST ThermoML archive (doi:10.1016/j.tca.2005.08.007).
± gives the expanded uncertainty stated by the source.

Assay: xn = mol fraction of the nth substance listed
Details: 298.15 K, 101 kPa, Liquid; for viscosity: Capillary tube (Ostwald / Ubbelohde) method; for mass density: Vibrating tube method

C1CCCCC1 [cyclohexane] + CCCCCC
Details | mass density [kg/m3] | viscosity [mPa·s]
x1 = 0.0397 | 655.8 ± 0.39 | 0.2833 ± 0.0033
x1 = 0.2011 | 674.91 ± 0.37 | 0.3282 ± 0.0037
x1 = 0.2776 | 683.97 ± 0.36 | 0.3485 ± 0.0038
x1 = 0.3617 | 693.92 ± 0.35 | 0.3778 ± 0.004
x1 = 0.4409 | 703.31 ± 0.34 | 0.4077 ± 0.0042
x1 = 0.5889 | 720.83 ± 0.32 | 0.4815 ± 0.0048
x1 = 0.6848 | 732.18 ± 0.3 | 0.5355 ± 0.0052
x1 = 0.7608 | 741.18 ± 0.29 | 0.5994 ± 0.0057
x1 = 0.8074 | 746.7 ± 0.28 | 0.6444 ± 0.006
x1 = 0.9205 | 760.09 ± 0.27 | 0.7507 ± 0.0068

C1CCCCC1 [cyclohexane] + Cc1ccccc1
Details | mass density [kg/m3] | viscosity [mPa·s]
x2 = 0.0721 | 777.43 ± 0.26 | 0.8574 ± 0.0077
x2 = 0.1813 | 784.63 ± 0.28 | 0.7693 ± 0.007
x2 = 0.2798 | 791.6 ± 0.3 | 0.7024 ± 0.0065
x2 = 0.3613 | 799.02 ± 0.31 | 0.651 ± 0.0062
x2 = 0.4416 | 806 ± 0.33 | 0.6116 ± 0.0059
x2 = 0.6003 | 820.17 ± 0.36 | 0.5532 ± 0.0055
x2 = 0.6784 | 827.33 ± 0.38 | 0.5329 ± 0.0053
x2 = 0.7615 | 834.61 ± 0.39 | 0.5181 ± 0.0053
x2 = 0.8396 | 843.41 ± 0.41 | 0.5029 ± 0.0052
x2 = 0.9202 | 853.16 ± 0.43 | 0.4976 ± 0.0052

CCCCCC [hexane] + Cc1ccccc1
Details | mass density [kg/m3] | viscosity [mPa·s]
x2 = 0.0406 | 657.47 ± 0.4 | 0.2774 ± 0.0033
x2 = 0.2028 | 690.93 ± 0.4 | 0.3073 ± 0.0035
x2 = 0.2804 | 706.95 ± 0.41 | 0.3185 ± 0.0036
x2 = 0.3596 | 723.29 ± 0.42 | 0.3272 ± 0.0037
x2 = 0.4423 | 740.35 ± 0.42 | 0.3421 ± 0.0038
x2 = 0.5997 | 772.81 ± 0.43 | 0.3812 ± 0.0042
x2 = 0.6757 | 788.5 ± 0.43 | 0.4028 ± 0.0044
x2 = 0.7597 | 805.83 ± 0.43 | 0.43 ± 0.0046
x2 = 0.8412 | 822.63 ± 0.44 | 0.4644 ± 0.0049
x2 = 0.9199 | 838.87 ± 0.44 | 0.499 ± 0.0052
